This note sets out measurements from publication PMC12140364, “Meisoindigo Acts as a Molecular Glue to Target PKMYT1 for Degradation in Chronic Myeloid Leukemia Therapy” (Advanced Science, 2025).

One experiment addresses T1, TRIM25 (Homo sapiens, UniProt Q14258).
T1 construct: recombinant TRIM25 (Origene, TP303757)
Nature of the experiment: MST. It counts as binding.

The target of experiment [1] is T2, PKMYT1 (protein kinase, membrane-associated tyrosine/threonine 1) (Homo sapiens, UniProt Q99640).
T2 construct: residues 75-362, N-terminal 6xHis, E. coli
T2 sequence (Q99640 75-362): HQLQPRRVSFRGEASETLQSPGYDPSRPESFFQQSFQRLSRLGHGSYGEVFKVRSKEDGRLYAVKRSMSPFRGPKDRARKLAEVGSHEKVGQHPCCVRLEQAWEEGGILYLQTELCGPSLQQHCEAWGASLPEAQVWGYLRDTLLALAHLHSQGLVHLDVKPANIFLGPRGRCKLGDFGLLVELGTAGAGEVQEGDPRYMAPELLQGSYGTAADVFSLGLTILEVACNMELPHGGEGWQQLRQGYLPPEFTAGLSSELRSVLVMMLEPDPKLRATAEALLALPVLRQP
Nature of the experiment: MST; LC-MS/MS adduct mapping; CETSA; C301A mutant abolishes binding.

A further experiment addresses T3, PKMYT1 (Homo sapiens, UniProt Q99640).
T3 sequence (Q99640 1-499): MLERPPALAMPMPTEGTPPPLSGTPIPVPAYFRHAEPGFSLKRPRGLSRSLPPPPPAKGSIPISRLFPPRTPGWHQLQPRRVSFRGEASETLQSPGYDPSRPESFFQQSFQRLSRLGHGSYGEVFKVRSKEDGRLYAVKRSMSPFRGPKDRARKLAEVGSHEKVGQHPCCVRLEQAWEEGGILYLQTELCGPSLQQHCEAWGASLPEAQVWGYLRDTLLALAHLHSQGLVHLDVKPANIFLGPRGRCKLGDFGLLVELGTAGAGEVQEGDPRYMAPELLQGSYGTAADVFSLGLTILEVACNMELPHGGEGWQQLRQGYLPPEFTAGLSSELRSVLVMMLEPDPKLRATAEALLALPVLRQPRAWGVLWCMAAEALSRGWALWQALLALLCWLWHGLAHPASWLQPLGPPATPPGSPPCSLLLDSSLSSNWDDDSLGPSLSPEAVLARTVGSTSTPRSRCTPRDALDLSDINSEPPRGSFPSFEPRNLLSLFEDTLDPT
Nature of the experiment: enzyme activity assay. The format is biochemical.

Experiment [2] deals with T4, TRIM25 protein (Origene, TP303757) (UniProt Q14258 1-630).
T4 construct: TRIM25, E3 ubiquitin ligase; also called recombinant TRIM25; E3 ligase TRIM25; source: bought: Origene (TP303757)
T4 sequence (Q14258 whole entry): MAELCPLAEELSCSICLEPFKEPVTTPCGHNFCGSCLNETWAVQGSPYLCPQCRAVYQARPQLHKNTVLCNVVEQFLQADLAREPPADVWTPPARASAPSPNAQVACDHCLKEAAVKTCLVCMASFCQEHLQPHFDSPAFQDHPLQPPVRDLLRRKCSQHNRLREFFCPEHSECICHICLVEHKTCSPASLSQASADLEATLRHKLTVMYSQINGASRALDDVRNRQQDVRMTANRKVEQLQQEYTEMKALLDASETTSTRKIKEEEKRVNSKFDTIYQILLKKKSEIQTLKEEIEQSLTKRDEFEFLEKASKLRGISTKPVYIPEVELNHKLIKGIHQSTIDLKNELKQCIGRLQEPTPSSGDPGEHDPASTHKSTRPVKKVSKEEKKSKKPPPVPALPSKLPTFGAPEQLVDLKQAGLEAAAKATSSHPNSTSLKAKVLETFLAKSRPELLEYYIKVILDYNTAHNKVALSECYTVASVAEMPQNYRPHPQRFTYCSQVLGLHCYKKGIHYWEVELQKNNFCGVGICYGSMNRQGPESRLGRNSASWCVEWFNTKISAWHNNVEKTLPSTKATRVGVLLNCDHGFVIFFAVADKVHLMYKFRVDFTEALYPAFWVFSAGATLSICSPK
Nature of the experiment: MST; PKMYT1 (75-362) protein labelled with RED-NHS 2nd Generation, 40 nM, assay buffer with 0.05% Tween-20; TRIM25 in 2-fold dilution series; Monolith NT.115; without Mei; n = 3. As to conditions: both partners purified.

T1 sequence (Q14258 whole entry): as above

Consider `CN1C(=O)/C(=C2/C(=O)Nc3ccccc32)c2ccccc21` [Mei, Meisoindigo], for which the Kd (usually the equilibrium constant for the complex coming apart) on TRIM25 stood at 220 ± 100 nM; in experiment [1] it was 2180 ± 960 nM.
In the case of `CCN(CC)CCOc1ccc(Nc2ncc3cc(-c4c(Cl)cccc4Cl)c(=O)n(C)c3n2)cc1` [PD0166285], the IC50 (as a rule, the concentration that gives 50% inhibition) on PKMYT1 came to 16.4 nM.

B1: recombinant PKMYT1 (75-362) (domain or fragment, human, UniProt Q99640 75-362, looked up)
chain: HQLQPRRVSFRGEASETLQSPGYDPSRPESFFQQSFQRLSRLGHGSYGEVFKVRSKEDGRLYAVKRSMSPFRGPKDRARKLAEVGSHEKVGQHPCCVRLEQAWEEGGILYLQTELCGPSLQQHCEAWGASLPEAQVWGYLRDTLLALAHLHSQGLVHLDVKPANIFLGPRGRCKLGDFGLLVELGTAGAGEVQEGDPRYMAPELLQGSYGTAADVFSLGLTILEVACNMELPHGGEGWQQLRQGYLPPEFTAGLSSELRSVLVMMLEPDPKLRATAEALLALPVLRQP
modifications: labelled with RED-NHS 2nd Generation dye for MST
notes: No cleavage of the His tag is described; also called protein kinase, membrane-associated tyrosine/threonine 1; source: E. coli BL21(DE3), purified (Ni-resin)
On to B1, for which the Kd in experiment [2] is 2940 nM.
